Results published in PubChem BioAssay (NCI).
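Assay format: 96-well plates, 48-hour exposure. At the GI50, growth is halved. TGI: total growth inhibition.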

Experiments:
Test in all cases: NCI-60 cell line screen, 48 h
[1] = system: OVCAR-8 ovarian
[2] = system: SK-MEL-5 melanoma
[3] = system: SW-620 colon
[4] = system: HCT-116 colon
[5] = system: PC-3 prostate
[6] = system: KM12 colon
[7] = system: NCI-H460 lung
[8] = system: NCI-H522 lung
[9] = system: MCF7 breast
[10] = system: SK-OV-3 ovarian
[11] = system: OVCAR-4 ovarian
[12] = system: SR leukemia
[13] = system: RXF 393 renal
[14] = system: NCI/ADR-RES ovarian
[15] = system: SF-268 CNS
[16] = system: HCT-15 colon
[17] = system: U251 CNS
[18] = system: OVCAR-5 ovarian
[19] = system: SK-MEL-28 melanoma
[20] = system: RPMI-8226 leukemia
[21] = system: OVCAR-3 ovarian
[22] = system: MALME-3M melanoma
[23] = system: 786-0 renal
[24] = system: CCRF-CEM leukemia
[25] = system: CAKI-1 renal
[26] = system: SN12C renal
[27] = system: LOX IMVI melanoma
[28] = system: IGROV1 ovarian

Q: For COc1ccc(-c2nc(-c3nc4cc(C)c(C)cc4[nH]3)cc3c2[nH]c2ccccc23)cc1, which TGI [1] is on record?
A: > 100 µM

Q: And the GI50 [2]?
A: 2.9 µM

Q: What about the TGI [2] of the same compound?
A: 12.6 µM

Q: And the GI50 [3]?
A: 7.54 µM

Q: And the TGI [3]?
A: > 100 µM

Q: What about the GI50 [4] of the same compound?
A: 3.22 µM

Q: What about the TGI [4] of the same compound?
A: 13 µM

Q: What about the GI50 [5] of the same compound?
A: 2.77 µM

Q: And the TGI [5]?
A: 44 µM

Q: And the GI50 [6]?
A: 3.5 µM

Q: And the TGI [6]?
A: 24.9 µM

Q: And the GI50 [7]?
A: 3.49 µM

Q: What about the TGI [7] of the same compound?
A: > 100 µM

Q: And the GI50 [8]?
A: 3 µM

Q: And the TGI [8]?
A: 13.5 µM

Q: What about the GI50 [9] of the same compound?
A: 3.22 µM

Q: And the TGI [9]?
A: 59.7 µM

Q: What about the GI50 [10] of the same compound?
A: 13 µM

Q: What about the TGI [10] of the same compound?
A: 48.1 µM

Q: And the GI50 [11]?
A: 6.98 µM

Q: What about the TGI [11] of the same compound?
A: > 100 µM

Q: What about the GI50 [12] of the same compound?
A: 2.33 µM

Q: What about the TGI [12] of the same compound?
A: 7.17 µM

Q: What about the GI50 [13] of the same compound?
A: 1.72 µM

Q: And the TGI [13]?
A: 3.66 µM

Q: What about the GI50 [14] of the same compound?
A: 6.37 µM

Q: What about the TGI [14] of the same compound?
A: > 100 µM

Q: And the GI50 [15]?
A: 12.7 µM

Q: And the TGI [15]?
A: > 100 µM

Q: And the GI50 [16]?
A: 2.68 µM

Q: What about the TGI [16] of the same compound?
A: 72.5 µM

Q: What about the GI50 [17] of the same compound?
A: 3.04 µM

Q: And the TGI [17]?
A: 16.6 µM

Q: And the GI50 [18]?
A: 4.01 µM

Q: What about the TGI [18] of the same compound?
A: > 100 µM

Q: What about the GI50 [19] of the same compound?
A: 2.89 µM

Q: And the TGI [19]?
A: 10.5 µM

Q: And the GI50 [20]?
A: 1.77 µM

Q: And the TGI [20]?
A: 5.16 µM

Q: What about the GI50 [21] of the same compound?
A: 2.25 µM

Q: What about the TGI [21] of the same compound?
A: 4.6 µM

Q: And the GI50 [22]?
A: 4.6 µM

Q: And the TGI [22]?
A: 16.5 µM

Q: And the GI50 [23]?
A: 2.6 µM

Q: What about the TGI [23] of the same compound?
A: 5.93 µM

Q: What about the GI50 [24] of the same compound?
A: 2.51 µM

Q: And the TGI [24]?
A: 7.56 µM

Q: What about the GI50 [25] of the same compound?
A: 2.44 µM

Q: What about the TGI [25] of the same compound?
A: 44.5 µM

Q: What about the GI50 [26] of the same compound?
A: 5.54 µM

Q: And the TGI [26]?
A: > 100 µM

Q: And the GI50 [27]?
A: 3.08 µM

Q: And the TGI [27]?
A: 11.2 µM

Q: And the GI50 [28]?
A: 9.99 µM

Q: What about the TGI [28] of the same compound?
A: > 100 µM
